The source of these data is ChEMBL document CHEMBL2040736, “Design of potent and selective hybrid inhibitors of the mitotic kinase Nek2: structure-activity relationship, structural biology, and cellular activity” (J Med Chem, 2012).

In assay [1] the target is Serine/threonine-protein kinase PLK1 (Homo sapiens, UniProt P53350). Nature of the assay: Inhibition of Plk1 using 5-FAMRRRAGALMDASFEEQ- CONH2 as substrate after 75 mins by caliper method.
Assay [2] has as its target Serine/threonine-protein kinase Chk1 (Homo sapiens) (UniProt O14757). Nature of the assay: Inhibition of CHK1 at 1 uM incubated for 30 mins prior to substrate addition study done at apparent ATP Km for enzyme.
Assay [3] concerns the target Mitogen-activated protein kinase 3 (Homo sapiens) (UniProt P27361). Kind of assay: Inhibition of Erk1 at 1 uM incubated for 30 mins prior to substrate addition study done at apparent ATP Km for enzyme.
Assay [4] addresses Insulin receptor (Homo sapiens) (UniProt P06213). Kind of assay: Inhibition of INSR at 1 uM incubated for 30 mins prior to substrate addition study done at apparent ATP Km for enzyme.
Assay [5] addresses T1, Tyrosine-protein kinase Fyn (Homo sapiens, UniProt P06241). Nature of the assay: Inhibition of FYN incubated for 30 mins prior to substrate addition study done at apparent ATP Km for enzyme.
In assay [6] the target is Mitogen-activated protein kinase 14 (Homo sapiens) (UniProt Q16539). Kind of assay: Inhibition of p38alpha at 1 uM incubated for 30 mins prior to substrate addition study done at apparent ATP Km for enzyme.
Assay [7] has as its target T2, Glycogen synthase kinase-3 beta (Homo sapiens, UniProt P49841). Kind of assay: Inhibition of GSK3beta at 1 uM incubated for 30 mins prior to substrate addition study done at apparent ATP Km for enzyme.
Assay [8] addresses T1, Tyrosine-protein kinase Fyn. Nature of the assay: Inhibition of FYN at 1 uM incubated for 30 mins prior to substrate addition study done at apparent ATP Km for enzyme.
Target sequence in this assay (P06241 2-537 limits assumed): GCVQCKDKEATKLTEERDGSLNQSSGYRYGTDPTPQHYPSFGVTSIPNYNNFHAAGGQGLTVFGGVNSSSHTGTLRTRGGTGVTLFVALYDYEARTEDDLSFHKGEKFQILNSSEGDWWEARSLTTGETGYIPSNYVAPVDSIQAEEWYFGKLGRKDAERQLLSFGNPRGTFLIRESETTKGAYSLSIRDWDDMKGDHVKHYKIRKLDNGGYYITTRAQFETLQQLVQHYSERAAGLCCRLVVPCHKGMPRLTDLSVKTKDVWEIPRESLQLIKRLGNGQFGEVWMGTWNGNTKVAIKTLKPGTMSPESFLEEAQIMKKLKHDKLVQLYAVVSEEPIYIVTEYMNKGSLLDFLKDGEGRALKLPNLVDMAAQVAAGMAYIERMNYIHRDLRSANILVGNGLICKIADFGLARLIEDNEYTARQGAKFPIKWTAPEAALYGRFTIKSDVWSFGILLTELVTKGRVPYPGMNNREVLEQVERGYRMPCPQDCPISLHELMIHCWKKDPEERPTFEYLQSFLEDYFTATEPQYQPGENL
Assay [9] addresses Mitogen-activated protein kinase 1 (Homo sapiens) (UniProt P28482). Kind of assay: Inhibition of Erk2 at 1 uM incubated for 30 mins prior to substrate addition study done at apparent ATP Km for enzyme.
Assay [10] addresses T2, Glycogen synthase kinase-3 beta. Kind of assay: Inhibition of GSK3beta incubated for 30 mins prior to substrate addition study done at apparent ATP Km for enzyme.
Assay [11] addresses T3, Serine/threonine-protein kinase Nek2 (Homo sapiens, UniProt P51955).
T3 sequence (P51955 whole entry): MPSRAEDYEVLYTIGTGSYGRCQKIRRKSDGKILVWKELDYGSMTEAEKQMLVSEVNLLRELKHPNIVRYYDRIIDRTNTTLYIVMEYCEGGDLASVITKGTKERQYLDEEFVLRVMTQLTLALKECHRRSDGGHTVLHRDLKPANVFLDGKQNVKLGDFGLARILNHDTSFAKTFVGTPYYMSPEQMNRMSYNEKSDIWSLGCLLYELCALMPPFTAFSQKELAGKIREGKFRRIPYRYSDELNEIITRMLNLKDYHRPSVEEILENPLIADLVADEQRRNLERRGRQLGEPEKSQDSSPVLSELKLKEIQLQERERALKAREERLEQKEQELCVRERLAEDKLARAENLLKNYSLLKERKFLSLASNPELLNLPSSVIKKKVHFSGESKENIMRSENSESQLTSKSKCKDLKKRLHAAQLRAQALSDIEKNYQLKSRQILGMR

The target in assay [12] is Tyrosine-protein kinase Lyn (Homo sapiens, UniProt P07948). Kind of assay: Inhibition of LYN incubated for 30 mins prior to substrate addition study done at apparent ATP Km for enzyme.
Assay [13] deals with Ribosomal protein S6 kinase alpha-5 (Homo sapiens) (UniProt O75582). Kind of assay: Inhibition of MSK1 at 1 uM incubated for 30 mins prior to substrate addition study done at apparent ATP Km for enzyme.
Assay [14] concerns the target T3, Serine/threonine-protein kinase Nek2. This is another data set of the same source.
Description: Inhibition of Nek2-mediated C-Nap1 phosphorylation in human U2OS cells after 3 hrs by immunofluorescence microscopy
Assay [15] has as its target Ribosomal protein S6 kinase alpha-1 (Homo sapiens) (UniProt Q15418). Nature of the assay: Inhibition of RSK1 at 1 uM incubated for 30 mins prior to substrate addition study done at apparent ATP Km for enzyme.
Assay [16] has as its target MAP kinase-activated protein kinase 2 (Homo sapiens) (UniProt P49137). Kind of assay: Inhibition of MAPKAPK2 at 1 uM incubated for 30 mins prior to substrate addition study done at apparent ATP Km for enzyme.
Assay [17] is described as follows: Inhibition of CH1D at 1 uM incubated for 30 mins prior to substrate addition study done at apparent ATP Km for enzyme.
Assay [18] concerns the target RAC-alpha serine/threonine-protein kinase (Homo sapiens) (UniProt P31749). Nature of the assay: Inhibition of AKT1 at 1 uM incubated for 30 mins prior to substrate addition study done at apparent ATP Km for enzyme.

SMILES strings stand for the structures.

Ribosomal protein S6 kinase alpha-5 (Homo sapiens), sequence (O75582 whole entry, looked up): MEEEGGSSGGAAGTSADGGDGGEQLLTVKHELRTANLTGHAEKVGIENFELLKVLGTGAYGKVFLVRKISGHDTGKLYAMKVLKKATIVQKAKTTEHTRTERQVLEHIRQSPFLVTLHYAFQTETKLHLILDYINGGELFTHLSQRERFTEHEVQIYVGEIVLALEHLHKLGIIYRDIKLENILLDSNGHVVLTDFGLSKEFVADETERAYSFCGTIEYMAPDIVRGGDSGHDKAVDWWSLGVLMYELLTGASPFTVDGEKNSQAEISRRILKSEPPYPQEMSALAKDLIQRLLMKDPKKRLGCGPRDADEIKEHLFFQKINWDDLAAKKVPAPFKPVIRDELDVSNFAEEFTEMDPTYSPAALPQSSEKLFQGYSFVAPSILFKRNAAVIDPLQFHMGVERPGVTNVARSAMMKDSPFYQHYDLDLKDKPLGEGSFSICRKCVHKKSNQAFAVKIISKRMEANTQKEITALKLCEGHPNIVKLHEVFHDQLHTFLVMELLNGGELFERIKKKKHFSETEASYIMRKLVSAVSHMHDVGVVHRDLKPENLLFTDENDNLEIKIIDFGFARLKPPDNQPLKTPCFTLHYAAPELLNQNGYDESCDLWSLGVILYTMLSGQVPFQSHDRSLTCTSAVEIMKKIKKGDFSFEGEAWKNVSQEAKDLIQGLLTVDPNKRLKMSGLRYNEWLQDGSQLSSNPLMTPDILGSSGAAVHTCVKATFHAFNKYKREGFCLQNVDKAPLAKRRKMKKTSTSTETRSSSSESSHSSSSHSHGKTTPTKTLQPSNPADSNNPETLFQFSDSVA
RAC-alpha serine/threonine-protein kinase (Homo sapiens), sequence (P31749 whole entry): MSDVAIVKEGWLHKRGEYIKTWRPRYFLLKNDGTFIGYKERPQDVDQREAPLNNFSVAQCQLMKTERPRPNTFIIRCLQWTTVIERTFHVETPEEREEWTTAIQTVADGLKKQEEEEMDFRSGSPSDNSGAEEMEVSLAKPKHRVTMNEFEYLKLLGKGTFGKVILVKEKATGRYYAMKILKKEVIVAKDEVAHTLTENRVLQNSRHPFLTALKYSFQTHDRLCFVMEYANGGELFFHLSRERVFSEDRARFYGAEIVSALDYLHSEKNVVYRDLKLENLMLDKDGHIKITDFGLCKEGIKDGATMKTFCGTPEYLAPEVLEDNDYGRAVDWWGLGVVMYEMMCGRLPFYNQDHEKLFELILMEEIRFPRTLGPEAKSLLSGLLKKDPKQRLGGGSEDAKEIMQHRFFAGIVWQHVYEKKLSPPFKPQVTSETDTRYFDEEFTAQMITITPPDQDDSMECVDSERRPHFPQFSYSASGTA
Mitogen-activated protein kinase 14 (Homo sapiens), sequence (Q16539 whole entry): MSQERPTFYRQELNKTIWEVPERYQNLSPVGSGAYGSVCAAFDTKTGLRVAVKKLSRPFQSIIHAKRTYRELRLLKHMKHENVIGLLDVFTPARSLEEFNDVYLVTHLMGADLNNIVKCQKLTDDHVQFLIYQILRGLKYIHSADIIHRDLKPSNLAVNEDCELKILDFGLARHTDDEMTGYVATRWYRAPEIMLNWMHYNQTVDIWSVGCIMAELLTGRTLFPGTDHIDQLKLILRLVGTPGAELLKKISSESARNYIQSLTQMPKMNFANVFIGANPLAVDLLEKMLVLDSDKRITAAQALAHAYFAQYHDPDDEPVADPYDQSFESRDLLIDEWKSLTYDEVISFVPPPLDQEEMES
Tyrosine-protein kinase Lyn, sequence (P07948 whole entry): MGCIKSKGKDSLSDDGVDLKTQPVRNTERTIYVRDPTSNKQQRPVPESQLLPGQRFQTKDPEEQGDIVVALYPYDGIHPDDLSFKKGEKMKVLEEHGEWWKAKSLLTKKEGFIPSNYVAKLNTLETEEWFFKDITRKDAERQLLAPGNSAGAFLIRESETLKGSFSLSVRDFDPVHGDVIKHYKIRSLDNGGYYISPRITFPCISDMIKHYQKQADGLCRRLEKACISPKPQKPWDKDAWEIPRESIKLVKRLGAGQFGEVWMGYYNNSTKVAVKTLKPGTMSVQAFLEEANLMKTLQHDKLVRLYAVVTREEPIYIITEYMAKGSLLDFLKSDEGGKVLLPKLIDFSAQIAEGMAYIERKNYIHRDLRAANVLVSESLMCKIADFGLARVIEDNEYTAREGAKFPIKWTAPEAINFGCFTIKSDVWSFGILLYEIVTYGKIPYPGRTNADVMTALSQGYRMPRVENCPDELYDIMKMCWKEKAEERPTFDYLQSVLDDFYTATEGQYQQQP
Serine/threonine-protein kinase Chk1 (Homo sapiens), sequence (O14757 whole entry): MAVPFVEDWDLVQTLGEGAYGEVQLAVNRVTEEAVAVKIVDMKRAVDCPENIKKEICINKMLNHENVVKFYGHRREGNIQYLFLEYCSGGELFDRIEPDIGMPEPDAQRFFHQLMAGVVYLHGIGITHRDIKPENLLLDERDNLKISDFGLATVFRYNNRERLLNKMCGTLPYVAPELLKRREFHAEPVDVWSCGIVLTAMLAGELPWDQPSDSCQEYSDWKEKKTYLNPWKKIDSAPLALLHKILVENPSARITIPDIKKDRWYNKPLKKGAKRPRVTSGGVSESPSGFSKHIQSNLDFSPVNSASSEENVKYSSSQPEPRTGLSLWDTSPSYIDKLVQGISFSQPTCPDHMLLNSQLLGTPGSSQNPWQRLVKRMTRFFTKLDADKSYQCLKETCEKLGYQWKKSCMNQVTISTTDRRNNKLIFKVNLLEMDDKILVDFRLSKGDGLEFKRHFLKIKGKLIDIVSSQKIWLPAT
MAP kinase-activated protein kinase 2 (Homo sapiens), sequence (P49137 whole entry, looked up): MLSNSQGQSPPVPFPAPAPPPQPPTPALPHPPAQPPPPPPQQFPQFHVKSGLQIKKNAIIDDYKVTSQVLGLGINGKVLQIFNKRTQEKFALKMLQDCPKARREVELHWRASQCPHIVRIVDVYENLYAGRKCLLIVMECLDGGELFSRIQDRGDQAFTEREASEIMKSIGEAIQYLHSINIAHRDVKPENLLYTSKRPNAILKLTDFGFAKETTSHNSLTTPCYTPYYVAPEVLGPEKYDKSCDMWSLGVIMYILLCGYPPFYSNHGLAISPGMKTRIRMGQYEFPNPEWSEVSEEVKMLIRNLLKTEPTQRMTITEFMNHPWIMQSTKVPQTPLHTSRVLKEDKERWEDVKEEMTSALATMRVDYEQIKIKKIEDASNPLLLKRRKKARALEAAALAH
Mitogen-activated protein kinase 3 (Homo sapiens), sequence (P27361 whole entry): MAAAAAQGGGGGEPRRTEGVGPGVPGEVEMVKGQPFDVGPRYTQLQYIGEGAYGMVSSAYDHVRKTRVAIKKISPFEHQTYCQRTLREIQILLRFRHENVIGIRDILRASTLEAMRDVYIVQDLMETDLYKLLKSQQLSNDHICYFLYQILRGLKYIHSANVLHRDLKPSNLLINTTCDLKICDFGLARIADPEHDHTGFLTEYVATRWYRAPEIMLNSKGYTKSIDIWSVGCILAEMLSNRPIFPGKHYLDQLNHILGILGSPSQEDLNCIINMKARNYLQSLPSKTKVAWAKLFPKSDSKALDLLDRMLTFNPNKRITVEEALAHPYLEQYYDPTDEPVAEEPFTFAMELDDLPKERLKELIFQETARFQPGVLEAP
Ribosomal protein S6 kinase alpha-1 (Homo sapiens), sequence (Q15418 whole entry): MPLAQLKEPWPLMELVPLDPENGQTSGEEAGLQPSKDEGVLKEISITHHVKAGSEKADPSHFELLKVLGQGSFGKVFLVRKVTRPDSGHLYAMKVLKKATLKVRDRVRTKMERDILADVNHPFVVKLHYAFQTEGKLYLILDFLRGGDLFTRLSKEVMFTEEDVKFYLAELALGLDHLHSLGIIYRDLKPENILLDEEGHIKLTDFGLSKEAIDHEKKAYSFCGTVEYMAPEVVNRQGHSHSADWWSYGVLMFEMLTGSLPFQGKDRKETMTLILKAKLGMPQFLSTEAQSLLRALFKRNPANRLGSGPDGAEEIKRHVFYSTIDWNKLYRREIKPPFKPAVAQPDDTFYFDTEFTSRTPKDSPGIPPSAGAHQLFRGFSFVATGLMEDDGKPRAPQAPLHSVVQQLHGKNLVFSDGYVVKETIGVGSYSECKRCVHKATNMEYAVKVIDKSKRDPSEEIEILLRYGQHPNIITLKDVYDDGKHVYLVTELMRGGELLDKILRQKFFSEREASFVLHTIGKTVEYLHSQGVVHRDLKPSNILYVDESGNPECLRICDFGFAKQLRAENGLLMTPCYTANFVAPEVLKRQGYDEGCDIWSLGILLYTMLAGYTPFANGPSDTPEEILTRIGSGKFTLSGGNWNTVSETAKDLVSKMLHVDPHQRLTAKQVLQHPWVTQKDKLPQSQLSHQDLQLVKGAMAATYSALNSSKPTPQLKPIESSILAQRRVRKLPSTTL

As usually defined, the IC50 is the concentration that inhibits the measured activity by half. A word on the inhibition: it is the change of the read-out against control, counted positive when it falls. `C[C@H](/C=C\C(F)(F)F)Oc1cc(-c2cc(-c3cc(CN(C)C)cs3)cnc2N)ccc1C(N)=O`: the IC50 in assay [1] was determined as 5.82 µM; in [5] it was 0.75 µM; in assay [10], 0.07 µM; in assay [11] it was 0.022 µM; in assay [12], 1.36 µM; in assay [14] it was 0.8 µM. The inhibition in assay [2] amounted to 11%; in assay [3], 2%; in [4] it was 0%; in assay [6] it was 0%; in assay [7], 93%; in assay [8], 57%. Besides, the inhibition in assay [9] was 11%; in assay [13], 25%; in [15], 29%; in assay [16], 6%; in assay [17], 67%; in assay [18], 3%.
